Results as given in patent US20240374763A1, “DIAGNOSIS AND MONITORING USING EXTRADOMAIN-B FIBRONECTIN TARGETED PROBES” (Case Western Reserve University, priority 2020, published 2024).
No end group written: not given here.

What was measured:
Format in all cases: in vivo, mice
[1] = test system: Capan-1 flank tumor xenografts; experiment: MRMI of Capan-1 flank tumor xenografts
Procedure: (§1) For flank xenograft models, 4×10^6 Capan-1 cells suspended in 100 μL of a 6 mg/mL Matrigel (Corning, Corning, NY) solution was injected subcutaneously into the flank of eight-week-old female nu/nu mice. The tumor bearing mice were imaged after tumor volumes exceeded 300 mm^3. For orthotopic intrapancreatic models, the pancreas of four-week-old female nu/nu mice were surgically exposed and 1×10^6 BxPC3-GFP-Luc or PANC-1-GFP-Luc cells suspended in 100 μL of an Matrigel solution (6 mg/mL) was injected into the pancreatic tissue. Prior to imaging, growth of tumor was verified by bioluminescence imaging with intraperitoneal injection of d-luciferin on IVIS Spectrum system (Perkin Elmer, Waltham, MA).
Flank tumor-bearing mice were anesthetized and a tail vein catheter inserted. MR image acquisition was performed on a 7T Biospin (Bruker, Billerica, MA) preclinical small animal scanner with a volume radiofrequency coil. Axial images were obtained using a multi-spin multi-echo (MSME) MRI sequence (500 ms TR, 8.1 ms TE, 900 FA, 4.50 cm×4.50 cm FOV, 1.50 mm slice thickness, 16 slices, 2 averages, 200×200 matrix, 0.0225×0.0225 cm/pixel resolution). Contrast agents were injected at a dose of 0.1 mmol/kg (100 μL) via the tail vein catheter, followed by a saline flush. Images of the tumors were acquired before contrast and at various time points after contrast administration. Gd(HP-DO3A) was used as a control.
Image files were exported and analyzed in Horus software. ROIs were drawn in the tumor, liver, kidney, and muscle. Muscle ROIs were taken from muscle, with other structures (liver, kidney, tumor) identified after comparison with published images and comparison with anatomical landmarks or bioluminescent imaging. Size of ROIs drawn for image analysis are summarized in Supplemental Table S1. The contrast-to-noise ratio of the tumor (CNR) was calculated using the following equation, where σ_noise is the standard deviation of intensities from an ROI drawn outside of the mouse body: […]

[2] = test system: BxPC3-GFP-Luc intrapancreatic tumors; experiment: MRMI of BxPC3-GFP-Luc intrapancreatic tumors
Procedure: as §1
(§2) Mice bearing intrapancreatic tumors were anesthetized and a tail vein catheter was inserted. Image acquisition was performed on a MR Solutions 3T MRS 3000 scanner with a mouse radiofrequency coil. Axial images were obtained using a Fast Spin Echo (FSE) MRI sequence (305 ms TR, 11 ms TE, 90° F.A, 4 cm×4 cm FOV, 1 mm slice thickness, 10 slices, echo train length=4, echo spacing=11 ms, 4 averages, 256×256 matrix, […] cm/pixel resolution) with respiratory gating. Images were acquired before contrast and at different time points after contrast injection at a dose of 0.1 mmol/kg (100 μL). For competitive binding experiments, a 5:1 molar ratio of free ZD2 peptide to MT218 was injected in mice bearing intrapancreatic BxPC3 tumor xenografts (n=3) at a dose of 0.1 mmol MT218/kg (100 μL). Images obtained on the MR Solutions 3T scanner were normalized using the Surscalereader.exe (MR Solutions, Guildford, UK) program supplied.
Image files were exported and analyzed in Horus software. ROIs were drawn in the tumor, liver, kidney, and muscle. Muscle ROIs were taken from muscle, with other structures (liver, kidney, tumor) identified after comparison with published images and comparison with anatomical landmarks or bioluminescent imaging. Size of ROIs drawn for image analysis are summarized in Supplemental Table S1. The contrast-to-noise ratio of the tumor (CNR) was calculated using the following equation, where σ_noise is the standard deviation of intensities from an ROI drawn outside of the mouse body:
Image contrast was reported as fold enhancement of contrast to noise ratio of postcontrast images over precontrast images using Fold Enhancement=CNRpost/CNRpre. Statistical analysis of CNR was performed in Minitab Express (Minitab Inc, State College, PA). One-way ANOVA with Fisher Individual Tests for Differences of Means post-hoc testing was performed to determine statistical significance between greater than two means (p<0.05). Student's T test was used to determine statistical significance between two means (p<0.05).

[3] = test system: PANC-1-GFP-Luc intrapancreatic tumor xenografts; experiment: MRMI of PANC-1-GFP-Luc intrapancreatic tumor xenografts
Procedure: as §1, §2
Image files were exported and analyzed in Horus software. ROIs were drawn in the tumor, liver, kidney, and muscle. […] The contrast-to-noise ratio of the tumor (CNR) was calculated using the following equation, where σ_noise is the standard deviation of intensities from an ROI drawn outside of the mouse body: […]

LNCaP tumors = experiment: MRMI with MT218, LNCaP xenografts; details: 0.04 mmol Gd/kg, 20 min post-injection
From the text: (§3) Xenograft models were established by subcutaneous flank injections in athymic nu/nu mice for the 4 prostate cancer cells and tested with MRMI using 0.04 mmol Gd/kg of MT218.

C4-2 tumors = experiment: MRMI with MT218, C4-2 xenografts; details: 0.04 mmol Gd/kg, 20 min post-injection
From the text: as §3

C4-2-DR tumors = experiment: MRMI with MT218, C4-2-DR xenografts; details: 0.04 mmol Gd/kg, 20 min post-injection
From the text: as §3

## ZD2-N3-Gd(HP-DO3A) (TVRTSAD; also: conjugated to Gd(HP-DO3A) by click reaction of alkynyl-ZD2 with N3-Gd(HP-DO3A), residue of attachment not given here, Gd complex) [MT218, EDB-FN-targeted MRI contrast agent; ZD2 peptide conjugated to the clinical macrocyclic agent Gd(HP-DO3A)]
[1]; 0.1 mmol/kg, MT218 at 15 minutes post-injection, maintained at least 35 minutes, Gd(HP-DO3A) for the duration of the experiment
  increase of contrast to noise ratio (CNR): 4.84 fold
[1]; Capan-1 flank
  CNR compared to the clinical agent Gd(HP-DO3A): 273 % CNR of control
[2]; 0.1 mmol/kg, 10 min post-injection
  tumor CNR increase: 5.3 fold
[2]; 5:1 molar ratio of free ZD2 peptide to MT218, 0.1 mmol MT218/kg
  CNR increase with co-injection of excess free ZD2 peptide: approximately 2.5 fold
[2]; BxPC3-GFP-Luc
  CNR compared to the clinical agent Gd(HP-DO3A): 212 % CNR of control
[2]; competitive binding experiment, 0.1 mmol/kg
  CNR increase with MT218 without the free peptide: ca. 4.5 fold
[3]; 0.1 mmol/kg, 10 min postinjection
  intratumoral CNR increase: approximately 3.85 fold
[3]; PANC-1-GFP-Luc intrapancreatic
  CNR compared to the clinical agent Gd(HP-DO3A): 164 % CNR of control
LNCaP tumors
  increase in CNR: negligible
C4-2 tumors
  increase of CNR: ~3 fold
C4-2-DR tumors
  increase of CNR: 6 fold
